# Measured values as given in patent US9758527B2, “Cyclohexene derivative, preparation method therefor, and pharmaceutical composition for preventing or treating metabolic diseases, containing same as active ingredient” (HYUNDAI PHARM CO., LTD., priority 2014, dated 2017).
# Structures can show the parent of a compound that is named as a salt. Where two headings read alike, the source gives them in different places.
# Molecular target: T1, G protein-coupled receptor 119 (GPR-119) (Mesocricetus auratus, UniProt A0A1U8CD06)
# T1 construct: hamster-derived β-cells containing G protein-coupled receptor 119 (GPR-119), HIT-T15 cells; host or cells: HIT-T15 (hamster pancreatic β-cells)
# T1 sequence (A0A1U8CD06 1-334): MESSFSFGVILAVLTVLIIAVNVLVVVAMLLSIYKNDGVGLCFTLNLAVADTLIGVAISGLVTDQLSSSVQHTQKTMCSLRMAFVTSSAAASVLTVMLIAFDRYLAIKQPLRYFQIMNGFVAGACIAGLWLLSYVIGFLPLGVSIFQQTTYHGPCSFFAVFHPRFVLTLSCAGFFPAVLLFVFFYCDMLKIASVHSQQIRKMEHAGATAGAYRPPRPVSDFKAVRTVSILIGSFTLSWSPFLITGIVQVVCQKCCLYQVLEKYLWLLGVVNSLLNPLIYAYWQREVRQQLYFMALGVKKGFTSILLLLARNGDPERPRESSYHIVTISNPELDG
# Assay: Evaluation of cAMP activity in HIT-T15 cells (HTRF cAMP dynamic kit)
# Type: cell-based, hamster
# Conditions: cAMP activation
# Summary of the method: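 HIT-T15 cells, 60,000/well, treated next day with compound at six concentrations ([…]) for 1 h at 37° C. Lysate cAMP quantified by HTRF competitive immunoassay (D2-cAMP, cryptate anti-cAMP); activity taken as change in FRET signal relative to DMSO.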
# [1] = 1 h at 37° C., six concentrations, read-out: EC50
EC50 [1],EC50 (read-out: EC50 value),Structure (SMILES)
75 nM,–,"CC(C)(C)OC(=O)N1CCC(COc2ccc(C3=CCC(C(=O)NCC(F)F)CC3)c(F)c2)CC1 (stereo not shown) [Example 141, tert-butyl 4-((4-(4-(2,2-difluoroethylcarbamoyl)cyclohex-1-enyl)-3-fluorophenoxy)methyl)piperidine-1-carboxylate]"
85 nM,–,"CC(C)(C)OC(=O)N1CCC(COc2ccc(C3=CCC(C(=O)NCC(F)(F)F)CC3)c(F)c2)CC1 (stereo not shown) [Example 142, tert-butyl 4-((3-fluoro-4-(4-(2,2,2-trifluoroethylcarbamoyl)cyclohex-1-enyl)phenoxy)methyl)piperidine-1-carboxylate]"
23 nM,≤ 50 nM,"CC(C)c1noc(N2CCC(COc3ccc(C4=CCC(C(=O)N5CC[C@@H](CO)C5)CC4)cc3)CC2)n1 (stereo partly drawn) [Example 149, ((R)-3-(hydroxymethyl)pyrrolidin-1-yl)(4-(4-((1-(3-isopropyl-1,2,4-oxadiazol-5-yl)piperidin-4-yl)methoxy)phenyl)cyclohex-3-enyl)methanone]"
19 nM,≤ 50 nM,"CC(C)c1noc(N2CCC(COc3ccc(C4=CCC(C(=O)N5CC[C@H](CO)C5)CC4)cc3)CC2)n1 (stereo partly drawn) [Example 150, ((S)-3-(hydroxymethyl)pyrrolidin-1-yl)(4-(4-((1-(3-isopropyl-1,2,4-oxadiazol-5-yl)piperidin-4-yl)methoxy)phenyl)cyclohex-3-enyl)methanone]"
36 nM,≤ 50 nM,"CCc1cnc(N2CCC(COc3ccc(C4=CCC(C(=O)N5CC[C@H](CO)C5)CC4)cc3)CC2)nc1 (stereo partly drawn) [Example 152, (4-(4-((1-(5-ethylpyrimidin-2-yl)piperidin-4-yl)methoxy)phenyl)cyclohex-3-enyl)((S)-3-(hydroxymethyl)pyrrolidin-1-yl)methanone]"
25 nM,–,"CCc1cnc(N2CCC(COc3ccc(C4=CCC(C(=O)N5CC[C@H](CO)C5)CC4)cc3)CC2)nc1 (stereo partly drawn) [Example 158, (4-(4-((1-(5-ethylpyrimidin-2-yl)piperidin-4-yl)methoxy)phenyl)cyclohex-3-enyl)((S)-3-(hydroxymethyl)pyrrolidin-1-yl)methanone hydrochloride]"
20 nM,≤ 50 nM,"CCc1cnc(N2CCC(COc3ccc(C4=CCC(C(=O)N5CC[C@@H](CO)C5)CC4)cc3)CC2)nc1 (stereo partly drawn) [Example 159, (4-(4-((1-(5-ethylpyrimidin-2-yl)piperidin-4-yl)methoxy)phenyl)cyclohex-3-enyl)((R)-3-(hydroxymethyl)pyrrolidin-1-yl)methanone hydrochloride]"
14 nM,≤ 50 nM,"CCc1cnc(N2CCC(COc3ccc(C4=CCC(C(=O)N5CC[C@H](F)C5)CC4)cc3)CC2)nc1 (stereo partly drawn) [Example 160, (4-(4-((1-(5-ethylpyrimidin-2-yl)piperidin-4-yl)methoxy)phenyl)cyclohex-3-enyl)((S)-3-fluoropyrrolidin-1-yl)methanone]"
6 nM,–,"CCc1cnc(N2CCC(COc3ccc(C4=CCC(C(=O)N5CC[C@H](F)C5)CC4)cc3)CC2)nc1 (stereo partly drawn) [Example 161, (4-(4-((1-(5-ethylpyrimidin-2-yl)piperidin-4-yl)methoxy)phenyl)cyclohex-3-enyl)((S)-3-fluoropyrrolidin-1-yl)methanone hydrochloride]"
27 nM,≤ 50 nM,"CCc1cnc(N2CCC(COc3ccc(C4=CCC(C(=O)N5CCCC5)CC4)cc3)CC2)nc1 (stereo not shown) [Example 162, (4-(4-((1-(5-ethylpyrimidin-2-yl)piperidin-4-yl)methoxy)phenyl)cyclohex-3-enyl)(pyrrolidin-1-yl)methanone]"
7 nM,≤ 50 nM,"CCc1cnc(N2CCC(COc3ccc(C4=CCC(C(=O)N5CCCCC5)CC4)cc3)CC2)nc1 (stereo not shown) [Example 163, (4-(4-((1-(5-ethylpyrimidin-2-yl)piperidin-4-yl)methoxy)phenyl)cyclohex-3-enyl)(piperidin-1-yl)methanone]"
16 nM,≤ 50 nM,"CCc1cnc(N2CCC(COc3ccc(C4=CCC(C(=O)N5CCC(O)CC5)CC4)cc3)CC2)nc1 (stereo not shown) [Example 164, (4-(4-((1-(5-ethylpyrimidin-2-yl)piperidin-4-yl)methoxy)phenyl)cyclohex-3-enyl)(4-hydroxypiperidin-1-yl)methanone]"
7 nM,≤ 50 nM,"CCc1cnc(N2CCC(COc3ccc(C4=CCC(C(=O)N5CCC(CO)CC5)CC4)cc3)CC2)nc1 (stereo not shown) [Example 165, (4-(4-((1-(5-ethylpyrimidin-2-yl)piperidin-4-yl)methoxy)phenyl)cyclohex-3-enyl)(4-(hydroxymethyl)piperidin-1-yl)methanone]"
22 nM,–,"CCc1cnc(N2CCC(COc3ccc(C4=CCC(C(=O)N5CCCC5)CC4)cc3)CC2)nc1 (stereo not shown) [Example 166, (4-(4-((1-(5-ethylpyrimidin-2-yl)piperidin-4-yl)methoxy)phenyl)cyclohex-3-enyl)(pyrrolidin-1-yl)methanone hydrochloride]"
14 nM,–,"CCc1cnc(N2CCC(COc3ccc(C4=CCC(C(=O)N5CCCCC5)CC4)cc3)CC2)nc1 (stereo not shown) [Example 167, (4-(4-((1-(5-ethylpyrimidin-2-yl)piperidin-4-yl)methoxy)phenyl)cyclohex-3-enyl)(piperidin-1-yl)methanone hydrochloride]"
38 nM,–,"CCc1cnc(N2CCC(COc3ccc(C4=CCC(C(=O)N5CCN(CCO)CC5)CC4)cc3)CC2)nc1 (stereo not shown) [Example 172, (4-(4-((1-(5-ethylpyrimidin-2-yl)piperidin-4-yl)methoxy)phenyl)cyclohex-3-enyl)(4-(2-hydroxyethyl)piperazin-1-yl)methanone]"
18 nM,–,"CCc1cnc(N2CCC(COc3ccc(C4=CCC(C(=O)N5CCC(CCO)CC5)CC4)cc3)CC2)nc1 (stereo not shown) [Example 173, (4-(4-((1-(5-ethylpyrimidin-2-yl)piperidin-4-yl)methoxy)phenyl)cyclohex-3-enyl)(4-(2-hydroxyethyl)piperidin-1-yl)methanone]"
7 nM,≤ 50 nM,"CCc1cnc(N2CCC(COc3ccc(C4=CCC(C(=O)N(CC)CCO)CC4)cc3)CC2)nc1 (stereo not shown) [Example 175, N-ethyl-4-(4-((1-(5-ethylpyrimidin-2-yl)piperidin-4-yl)methoxy)phenyl)-N-(2-hydroxyethyl)cyclohex-3-enecarboxamide]"
38 nM,–,"CCc1cnc(N2CCC(COc3ccc(C4=CCC(C(=O)NCC(C)(C)CO)CC4)cc3)CC2)nc1 (stereo not shown) [Example 177, 4-(4-((1-(5-ethylpyrimidin-2-yl)piperidin-4-yl)methoxy)phenyl)-N-(3-hydroxy-2,2-dimethylpropyl)cyclohex-3-enecarboxamide]"
24 nM,≤ 50 nM,"CCc1cnc(N2CCC(COc3ccc(C4=CCC(C(=O)N(CCO)CCO)CC4)cc3)CC2)nc1 (stereo not shown) [Example 181, 4-(4-((1-(5-ethylpyrimidin-2-yl)piperidin-4-yl)methoxy)phenyl)-N,N-bis(2-hydroxyethyl)cyclohex-3-enecarboxamide]"
27 nM,≤ 50 nM,"CC(C)c1noc(N2CCC(COc3ccc(C4=CCC(C(=O)N5CCC(O)CC5)CC4)cc3)CC2)n1 (stereo not shown) [Example 182, (4-hydroxypiperidin-1-yl)(4-(4-((1-(3-isopropyl-1,2,4-oxadiazol-5-yl)piperidin-4-yl)methoxy)phenyl)cyclohex-3-enyl)methanone]"
12 nM,≤ 50 nM,"CC(C)c1noc(N2CCC(COc3ccc(C4=CCC(C(=O)N5CCC(CO)CC5)CC4)cc3)CC2)n1 (stereo not shown) [Example 183, (4-(hydroxymethyl)piperidin-1-yl)(4-(4-((1-(3-isopropyl-1,2,4-oxadiazol-5-yl)piperidin-4-yl)methoxy)phenyl)cyclohex-3-enyl)methanone]"
–,≤ 50 nM,"CC(C)c1noc(N2CCC(COc3ccc(C4=CCC(C(=O)N5CCC(CCO)CC5)CC4)cc3)CC2)n1 (stereo not shown) [Example 186, (4-(2-hydroxyethyl)piperidin-1-yl)(4-(4-((1-(3-isopropyl-1,2,4-oxadiazol-5-yl)piperidin-4-yl)methoxy)phenyl)cyclohex-3-enyl)methanone]"
28 nM,≤ 50 nM,"CC(C)(C)OC(=O)N1CCC(COc2ccc(C3=CCC(C(=O)NC4CCCC4)CC3)cc2)CC1 (stereo not shown) [Example 195, tert-butyl 4-((4-(4-(cyclopentylcarbamoyl)cyclohex-1-enyl)phenoxy)methyl)piperidine-1-carboxylate]"
18 nM,≤ 50 nM,"CCc1cnc(N2CCC(COc3ccc(C4=CCC(C(=O)N(C)OC)CC4)cc3)CC2)nc1 (stereo not shown) [Example 197, 4-(4-((1-(5-ethylpyrimidin-2-yl)piperidin-4-yl)methoxy)phenyl)-N-methoxy-N-methylcyclohex-3-enecarboxamide]"
24 nM,≤ 50 nM,"CC(C)(C)OC(=O)N1CCC(COc2ccc(C3=CCC(C(=O)N4CCCC4)CC3)cc2)CC1 (stereo not shown) [Example 202, tert-butyl 4-((4-(4-(pyrrolidine-1-carbonyl)cyclohex-1-enyl)phenoxy)methyl)piperidine-1-carboxylate]"
37 nM,–,"CCN1CCN(C(=O)C2CC=C(c3ccc(OCC4CCN(C(=O)OC(C)(C)C)CC4)cc3)CC2)CC1 (stereo not shown) [Example 203, tert-butyl 4-((4-(4-(4-ethylpiperazine-1-carbonyl)cyclohex-1-enyl)phenoxy)methyl)piperidine-1-carboxylate]"
